From US20180353501A1 (Arvinas, Inc., priority 2017, published 2018)

Key:
His-p38δ = target: T1, His-p38δ (Homo sapiens, UniProt O15264); assay: SPR binary affinity, compound on immobilized His-p38δ; assay type: binding; conditions: for Kd: His-p38δ immobilized, read-out: PROTAC:p38δ Kd
T1 construct: encoding a region spanning amino acids 1-365 was PCR-amplified; made in house; host or cells: E. coli BL21-CodonPlus(DE3)-RIPL
T1 sequence (O15264 1-365): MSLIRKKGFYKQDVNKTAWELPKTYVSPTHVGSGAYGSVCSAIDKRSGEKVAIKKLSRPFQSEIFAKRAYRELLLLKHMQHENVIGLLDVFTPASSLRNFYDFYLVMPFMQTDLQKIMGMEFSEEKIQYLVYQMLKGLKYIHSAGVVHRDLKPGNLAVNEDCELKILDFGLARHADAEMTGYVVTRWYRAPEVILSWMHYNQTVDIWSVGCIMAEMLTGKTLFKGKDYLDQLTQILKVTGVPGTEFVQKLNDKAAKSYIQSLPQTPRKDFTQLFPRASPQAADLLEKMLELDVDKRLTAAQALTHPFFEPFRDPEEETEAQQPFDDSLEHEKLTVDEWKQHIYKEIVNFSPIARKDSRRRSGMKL
Protocol: FIGS. 16A, 16B, and 16C. SPR curves assessing binary and ternary interactions. […] Equimolar p38δ:PROTAC mixtures were injected onto immobilized GST-VBC and allowed to dissociate overtime. […] See Table 12 for a summary of the binary and ternary affinity and kinetic measurements. […] Next, with the same setup, equimolar p38δ:PROTAC dilutions were successively injected onto immobilized VHL for 60 seconds, prior to monitoring complex dissociation for the remaining 300 seconds. This SPR strategy enabled us to determine effective ternary affinities for a given p38δ:PROTAC:VHL complex and compare the relative affinity change that occurs between VHL:PROTAC when p38δ is present in the mixture. […] This p38δ region was cloned into a pET28a vector containing an N-terminal His6 tag using NheI and BamHI restriction sites. As before, BL21-CodonPlus(DE3)-RIPL E. coli cells (Agilent Technologies) were transformed with pET[…]6-p38delta and were selected in LB medium containing kanamycin (50 μg mL^1), chloramphenicol (15 μg mL^-1), and spectinomycin (50 μg mL^-1) at 37° C. until OD600=0.8. […] Pure fractions of p38δ were pooled, concentrated to 3 mg mL^-1, aliquoted, and flash-frozen before storing at -80° C. SPR experiments were conducted on a Biacore 3000 instrument (GE Healthcare) at room temperature. GST antibody was immobilized through direct amination onto a carboxymethylated dextran surface (CM5) and GST-VBC was captured on the CM5 surface. This prepared surface was equilibrated over three hours in running buffer (10 mM HEPES buffer pH 7.4, 150 mM NaCl, 0.4 mg mL^-1 BSA, 0.005% P20, 2% DMSO). All compounds were prepared in 100% DMSO stock plates with a top concentration of 500 μM in a 3× serial dilution. Exemplary compounds were transferred from the stock plate to the assay plate and diluted into running buffer without DMSO. Equimolar concentration of target protein was added to corresponding compound wells. All exemplary compounds were run as a twelve point-concentration series with a final assay top concentration of 50 μM to measure p38δ:PROTAC and VHL:PROTAC binding and top concentration of 5 μM to measure p38δ:PROTAC:VHL binding. All exemplary compounds were injected for 60 seconds and allowed to dissociate for 300 seconds. Data analysis was performed in Scrubber 2 (BioLogic Software). Blanks from reference flow cell containing immobilized GST-VBC were subtracted to correct for noise and data was solvent-corrected against a standard DMSO curve.

[1] = target: T2, His-p38α:PROTAC:GST-VBC ternary complex (Homo sapiens, UniProt P40337+Q16539); assay: AlphaLISA ternary complex assay; assay type: binding; conditions: increasing PROTAC concentrations; VBC and p38α 150 nM
T2 construct: encodes a region spanning amino acids 2-360 of the human p38α kinase; made in house; host or cells: E. coli (BL21-CodonPlus(DE3)-RIPL for p38α; BL21(DE3) for GST-VBC)
Protocol: FIGS. 14A, 14B, and 14C. p38α selectivity is discriminated by ternary complex formation. (A) Only p38α incubated in the presence of exemplary compound 50 can be immunoprecipitated with GST-tagged VHL/EloB/EloC (VBC). Immobilized VBC was used as a bait to trap purified p38α in the presence of vehicle (DMSO), compound 50, or compound 46 (represented in micromolar concentrations). The rightmost lane represents a 1:25 dilution of initial input protein used in each pull-down. (B) Proximity-based AlphaLISA assay detects significant p38α:compound 50:VHL ternary complex, but no p38α:compound 46:VHL ternary complex. His-p38α and GST-VBC were incubated in the presence of increasing concentrations of compound 50 and compound 46 and the extent of ternary complex formation was assessed by excitation with incident light with 1=680 nm and capture of the emission light at 1=615 nm. Error bars represent the SD from quadruplicate experiments. […] FLAGimmunoprecipitated lysates were separated by SDS-PAGE and assessed via western blots detecting HA (Ub). […]
Following this logic, to the present disclosure seeks to describe the selectivity of exemplary compound 50 for p38α at the ternary complex level through the use of an in vitro ternary complex pull-down assay. […] Similarly, exemplary PROTACs 46 and 50 were evaluated in a proximity-based luminescence assay (AlphaLISA) to detect ternary complex formation. […]

T2 sequence (Q16539 2-360 limits assumed): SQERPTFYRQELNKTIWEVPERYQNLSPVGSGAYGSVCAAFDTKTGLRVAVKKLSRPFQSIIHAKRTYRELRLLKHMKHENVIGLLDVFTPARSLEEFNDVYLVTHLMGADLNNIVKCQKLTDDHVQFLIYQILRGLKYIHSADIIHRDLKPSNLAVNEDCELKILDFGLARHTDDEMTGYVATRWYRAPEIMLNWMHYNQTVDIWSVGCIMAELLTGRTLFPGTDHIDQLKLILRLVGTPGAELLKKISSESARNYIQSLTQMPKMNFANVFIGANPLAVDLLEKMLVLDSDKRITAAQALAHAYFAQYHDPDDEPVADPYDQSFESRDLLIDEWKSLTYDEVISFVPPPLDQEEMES
T2 sequence (P40337 whole entry, the tested form may be a part): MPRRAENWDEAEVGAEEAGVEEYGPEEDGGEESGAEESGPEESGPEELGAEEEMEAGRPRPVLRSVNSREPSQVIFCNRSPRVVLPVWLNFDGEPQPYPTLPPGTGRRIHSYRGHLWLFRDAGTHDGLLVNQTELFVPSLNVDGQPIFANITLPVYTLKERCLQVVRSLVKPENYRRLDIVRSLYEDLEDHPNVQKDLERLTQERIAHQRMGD
T2 sequence (Q15370 whole entry partner, the tested form may be a part): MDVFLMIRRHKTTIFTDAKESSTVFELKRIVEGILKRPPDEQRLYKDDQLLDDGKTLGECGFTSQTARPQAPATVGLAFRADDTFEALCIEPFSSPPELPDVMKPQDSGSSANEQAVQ
T2 sequence (Q15369 whole entry partner, the tested form may be a part): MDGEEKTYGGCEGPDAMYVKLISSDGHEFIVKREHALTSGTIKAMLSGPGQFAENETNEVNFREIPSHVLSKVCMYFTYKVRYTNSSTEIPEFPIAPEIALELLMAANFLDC

SMILES | loss of affinity for p38δ compared to the PTM (foretinib) (His-p38δ) | Kd (His-p38δ) [nM] | p38α:PROTAC:VHL ternary complex formation (AlphaLISA) [1]
COc1cc2c(Oc3ccc(NC(=O)C4(C(=O)Nc5ccc(F)cc5)CC4)cc3F)ccnc2cc1OCCOCCOCCOc1cc(-c2scnc2C)ccc1CNC(=O)[C@@H]1C[C@@H](O)CN1C(=O)[C@H](C(C)C)N1Cc2ccccc2C1=O [compound 46] | about 2 fold | 550 | no such ternary species is detectable
COc1cc2c(Oc3ccc(NC(=O)C4(C(=O)Nc5ccc(F)cc5)CC4)cc3F)ccnc2cc1OCCCCOCCCCOCC(=O)N[C@H](C(=O)N1C[C@H](O)C[C@H]1C(=O)NCc1ccc(-c2scnc2C)cc1)C(C)(C)C [compound 50, N-(3-fluoro-4-((7-(4-(4-(2-(((S)-1-((2S,4R)-4-hydroxy-2-((4-(4-methylthiazol-5-yl)benzyl)carbamoyl)pyrrolidin-1-yl)-3,3-dimethyl-1-oxobutan-2-yl)amino)-2-oxoethoxy)butoxy)buto-xy)-6-methoxyquinolin-4-yl)oxy)phenyl)-N-(4-fluorophenyl)cyclopropane-1,1-dicarboxa-mide] | about 2 fold | 500 | displays a ternary VHL:PROTAC:p38α complex
